In patent US20090227683A1, “Compositions for Providing an Analgesic Effect to the Skin” (priority 2008, published 2009):

Columns and labels:
[1] = system: Albino male CD-1 mice (neurogenic inflammation induced by Resiniferatoxin); assay: Resiniferatoxin neurogenic inflammation model in the mouse ear (ear edema); type: in vivo; settings: for inhibition of the neurogenic inflammatory response to resiniferatoxin, in words: summary of Tables 2 to 4
Text: Neurosensory inflammation, also referred to as neurogenic inflammation, is a type of inflammation triggered by sensory nerve activation in skin. Certain natural substances that act on vanilloid receptors cause sensory nerves (C-fibers) to release inflammatory neuropeptides. In mouse skin, an edema response occurs rapidly upon application of a vanilloid receptor activator, such as capsaicin or resiniferatoxin (RTX).
Albino male CD-1 mice, 7-9 weeks old, were used. […] A 20-μL volume of Resiniferatoxin (0.05%) prepared in acetone was applied to the left ears (7 mice per treatment group). The right ear was not treated. Test agents were prepared in a 70% ethanol/30% propylene glycol vehicle and applied to the left ear (20 μL) immediately after resiniferatoxin challenge. The percent inhibition was calculated by comparing treatments to resiniferatoxin alone. Anti-neurogenic inflammation effects of compounds are evident as an inhibition of the increase in ear weight.

[2] = system: Albino male CD-1 mice (scratching induced by Compound 48/80); assay: Scratching against Compound 48/80 in mice; type: in vivo; settings: for effect on Compound 48/80 scratching, in words: text summary of Tables 1 and 8
Experimental: (§1) Albino male CD-1 mice, 7-9 weeks old, were used. Testing was based on known methods (See Liebel et al., Arch Dermatol Res. 298:191-199, 2006.) Test agents were prepared at concentrations noted in Table 1 in 100% ethanol and 50 μL was applied topically to the shaved dorsal skin 30 minutes prior to induction of scratching (8 mice per treatment group). Compound 48/80 (50 μg/50 μL: w/v) was then injected inter-dermal to the dorsal area and scratches were then counted for 30 minutes.
as §1, with “prepared” for “prepared at concentrations noted in Table 1”, “uL” for “μL”, “ug/50 uL” for “μg/50 μL:”

[3] = Table 8, topical dose 1 % w/v in 100% ethanol, 50 uL, 30 minutes prior to Compound 48/80
[4] = Table 2, topical dose 0.5 % w/v in 70% ethanol/30% propylene glycol, 20 μL to ear immediately after resiniferatoxin

For CC(=O)[O-].[K+] [Potassium Acetate], the “% Inhibition of the Ear Edema” value ([1]; Table 4, topical dose 0.398 % w/v) was −2.89%.

With [Cl-].[Na+] [Sodium Chloride, reference compound] the “% Inhibition of the Ear Edema” value ([1]; Table 3, topical dose 1 % w/v) was 7.06%.

With CC(N/C(=N\C#N)Nc1ccncc1)C(C)(C)C (stereo not drawn) [Pinacidil, reference compound] the “% Inhibition of Scratching” value [2, 3] was 17.03%.

In the case of CC(O)CN(CCN(CC(C)O)CC(C)O)CC(C)O (stereo not drawn) [Tetrahydroxypropyl ethylenediamine, N,N,N′,N′-Tetrakis(2-hydroxypropyl)ethylenediamine], the “% Inhibition of the Ear Edema” value ([1]; Table 2, topical dose 1 % w/v, 20 μL to ear immediately after resiniferatoxin) is reported as 4.04%, the “inhibition of the neurogenic inflammatory response to resiniferatoxin, in words” value (from here on “inhibition … in words”) [1] is reported as “failed to significantly inhibit” and the “% Inhibition of Scratching” value ([2]; Table 1, topical dose 1 % w/v in 100% ethanol, 50 μL on shaved dorsal skin 30 minutes prior to Compound 48/80, scratches counted for 30 minutes) is reported as 9.39%. The “% Inhibition of Scratching” value [2, 3] was 9.39% and the “effect on Compound 48/80 scratching, in words” value [2] was “very weak to no inhibition”.

For CCN(CC)CC(=O)Nc1c(C)cccc1C [Lidocaine, reference compound], the “% Inhibition of the Ear Edema” value [1, 4] was 28.7%.

CC(O)C(=O)[O-].[K+] (stereo not drawn) [Potassium Lactate] was tested, and the “% Inhibition of the Ear Edema” value ([1]; Table 2, topical dose 0.206 % w/v, 20 μL to ear immediately after resiniferatoxin) was 13.52%, the “% Inhibition of the Ear Edema” value ([1]; Table 4, topical dose 0.206 % w/v) was 13.52% and the “inhibition … in words” value [1] was “failed to significantly inhibit”. For the same compound, the “% Inhibition of Scratching” value ([2]; Table 1, topical dose 0.206 % w/v in 100% ethanol, 50 μL, 30 minutes prior to Compound 48/80) was −8.84% and the “effect on Compound 48/80 scratching, in words” value [2] was “very weak to no inhibition”.

With [Cl-].[K+] [Potassium Chloride] the “% Inhibition of the Ear Edema” value ([1]; Table 3, topical dose 0.524 % w/v) was 9.98% and the “% Inhibition of the Ear Edema” value ([1]; Table 4, topical dose 0.524 % w/v) was 9.98%.

For O=C([O-])[O-].[K+].[K+] [Potassium Carbonate], the “% Inhibition of the Ear Edema” value ([1]; Table 4, topical dose 0.283 % w/v) was 4.52%.

In the case of [Ca+2].[Cl-].[Cl-] [Calcium Chloride, reference compound], the “% Inhibition of the Ear Edema” value ([1]; Table 3, topical dose 1 % w/v) is reported as −3.24%.

With CC(C)NCCN(CCNC(C)C)CCNC(C)C [Tris[2-(isopropylamino)ethylamine] the “% Inhibition of the Ear Edema” value [1, 4] was 13.62% and the “inhibition … in words” value [1] was “failed to significantly inhibit”.

Nc1cc(N2CCCCC2)nc(N)[n+]1[O-] [Minoxidil, reference compound] was tested, and the “% Inhibition of Scratching” value [2, 3] was 8.42%.
